Results: US20230061319A1, “METHODS OF TREATING TUMORS” (CoImmune, Inc., priority 2020, published 2023)

What was measured:
[1] = than rapamycin (sirolimus); cited from earlier work
CMV pp65 specific CTLs [2] = test: Induction of CMV pp65 specific recall CTLs by PME-CD40L DCs in the presence of mTOR inhibitors; type: cell-based, human
Procedure: (§1) 300 x 10^6 peripheral blood mononuclear cells (PBMCs) were cultured in 30 mL AIM-V media (Thermo Fisher Scientific) in T150 flasks (Corning) for 2 hours to provide for the adherence of monocytes. Non-adherent cells were removed by washing the monolayers twice with cold phosphate buffered saline (PBS) (Cambrex), and the remaining monocytes were cultured in X-VIVO 15 medium (Cambrex) for 5 days, supplemented with 1000 U/mL each of granulocyte macrophage-colony stimulating factor (GM-CSF) (Bayer AG, Leukine® liquid) and IL-4 (R&D Systems). To achieve DC maturation, immature DCs were first cultured on day 5 with 10 ng/mL tumor necrosis factor alpha (TNF-α) (R&D Systems), 1000 µ/mL interferon gamma (IFN-y) (Actimmune), and 1 µg/mL prostaglandin E2 (PGE2) (Sigma). On day 6, phenotypically mature DCs were co-electroporated with RNA encoding CD40L (Argos Lot No. 101606 JSC) at a concentration of 3 ug per million DCs plus either human cytomegalovirus (CMV) pp65 or MART-1 encoding RNAs at 2 µg per million DCs (CMVpp65 RNA-Argos Lot No 071107XF, MART-1-APL RNA-Argos Lot No. 011909HC). Generation of MART-1 RNA and CD40L RNA is described in e.g., DeBenedette et al., J. Immunol. 181(8):5296-5305 (2008).
Electroporated DCs were cultured for an additional 4 hours in X-VIVO 15 media supplemented with 800 µ/mL GM-CSF and 500 µ/mL IL-4 at 1 x 10^6 DCs/mL in low adherence 6-well plates (Costar). After 4 hr, the DCs were harvested by washing with cold PBS and prepared as a frozen formulation at 10 x 10^6 DCs/mL in 20% DMSO and 80% FBS, representing antigen electroporated Post Maturation Electroporated (PME)-CD40L DC preparations.
(§2) PME-CD40L DCs derived from HLA-A2-positive donors and transfected with antigen-encoding mRNAs were co-cultured with purified CD8^+ T cells. All co-cultures were performed in R-10 media. CD8^+ T cells were purified using the CD8+ T Cell Negative Selection Kit II (Miltenyi Biotec) from non-adherent cells harvested from the monocyte adherence step. The CD8^+ cells were mixed with DCs at a 10:1 ratio and incubated in the presence of 0.2 µg/mL IL-2 and 10 ng/mL IL-7 (R&D Systems). DC/T cell co-cultures were re-stimulated on day 7 and supplemented with 20 units/mL IL-2 plus 10 ng/mL IL-7. Induction of primary immune responses to MART-1 and memory/recall responses to CMV pp65 were measured on day 10.
(§3) To identify antigen-specific T cell responses and the phenotype of the antigen specific cells, T cells were harvested on day 10 post-stimulation and incubated with peptide-pulsed T2 target cells at a ratio of 10:1 for 4 hour with Brefeldin A, Monensin (BD Biosciences) and CD107a PE-Cy5. […] After 4 hours of co-culture, responder T cells were stained for 10 minutes with the requisite peptide/pentamer reagent, then washed once and re-stained with CD8-Eflour605, CD45RA-FITC, and CD28-APC. Cells were then washed in PBS and stained with Aquadye (BD Biosciences) for analysis of viability. Labeled cells were then fixed and permeabilized in Fixation/Permeabilization solution (eBiosciences). Cells where then stained with IFN-γ-PECy7, TNFa-AF700 and IL-2-PerCPcy5.5 in permeabilization buffer and resuspended in FACs buffer prior to acquisition.
CD8^+ cytotoxic T lymphocyte (CTL) responses were used to measure the pp65 CMV recall response induced by PME-CD40L DCs in the presence of mTOR inhibitors everolimus and temsirolimus. PME-CD40L DCs encoding CMV pp65 were used to stimulate recall CTL responses in the presence of the mTOR inhibitors under evaluation for compatibility with the CMN-001 product. The expansion of recall CTLs specific for CMV pp65 was determined on day 3 after a second weekly stimulation with PME-CD40L DCs.

[3] = than rapamycin (sirolimus); cited from earlier work; remark: listed apart in the source
MART-1 specific CTLs [4] = test: MART-1 specific CTL effector function (IFN-γ, TNF-α, IL-2 secretion, CD107a expression); type: cell-based, human; conditions: at the higher concentrations tested; compared to untreated CTLs
Procedure: as §2
as §3, with “Cells where then stained with IFN-γ-PECy7, TNFa-AF700 and IL-2-PerCPcy5.5 in permeabilization buffer and resuspended in FACs buffer prior to acquisition.” left out

B cells = test: TGF-β secretion by stimulated PBMCs from mRCC patients (ELISA); conditions: everolimus 10 ng/mL, 6 days, supernatant
Procedure: Frozen patient PBMC were thawed, counted, and washed in PBS. The cells were resuspended in X-VIVO 15 media (with gentamicin and phenol red; Lonza) at 2x10^6 cells/mL and incubated overnight in a 5% CO2 incubator at 37° C. The cells were counted and set up in culture at 1x10^6 cells/mL in X-VIVO 15 media. […] Everolimus (LC Laboratories) was added at 10 ng/mL to unstimulated or stimulated cultures. The cultures were incubated overnight in a 5% CO2 incubator at 37° C. for six days.
The concentration of total TGF-β1 in plasma and supernatant samples was quantified using the LEGEND MAX Total TGF-β1 ELISA Kit (Biolegend). Samples were prepared by acid treatment to activate latent TGF-β1 and then diluted 1:20 or 1:100 in assay buffer. Samples were incubated on a plate pre-coated with anti-TGF-β1 antibody for 2 hours. Anti-TGF-β1 was incubated for 1 hour, and the plate was washed and incubated with Avidin-HRP for 30 minutes. The plate was developed with TMB substrate solution and Stop solution, and was read at 450 nm and 570 nm using an ELx800 plate reader.
Thus, the impact of everolimus on B cell TGF-β production was investigated. PBMCs from mRCC patients were stimulated (“stim”) or left unstimulated (“control”) with or without everolimus addition as described in Example 1 to induce TGF-β secretion. TGF-β concentrations in the supernatant were measured after 6 days by ELISA.

MART-1 specific CTLs [5] = test: Priming of MART-1 specific CTLs by PME-CD40L DCs in the presence of mTOR inhibitors; type: cell-based, human; conditions: in the presence of the mTOR inhibitor, 10 ng/ml to 1 ug/ml
Procedure: as §1, with “Generation of MART-1 RNA and CD40L RNA is described in e.g., DeBenedette et al., J. Immunol. 181(8):5296-5305 (2008).” left out
PME-CD40L DCs derived from HLA-A2-positive donors and transfected with antigen-encoding mRNAs were co-cultured with purified CD8^+ T cells. […] Induction of primary immune responses to MART-1 and memory/recall responses to CMV pp65 were measured on day 10. […]

CMV pp65 specific CTLs [6] = test: CMV pp65 specific recall CTL effector function (IFN-γ, TNF-α, IL-2 secretion, CD107a expression); type: cell-based, human
Procedure: as §2, §3
To assess the impact mTOR inhibition would have on CTL effector function in vitro, CMV pp65 specific CTLs were assayed for the ability to secret the cytokines IFN-y, TNF-α and IL-2, and express the degranulation marker CD107a, which serves as a surrogate marker to measure lytic activity. Data presented in FIG. 2A and FIG. 2B measures the absolute numbers of CMV […] specific CTLs that secrete IFN-y, TNF-α or IL-2, or express CD107a in response to CMV pp65 peptide pulsed target cells. The absolute numbers of CMV^+ CTLs shown have been corrected for background non-specific responses to display only the antigen specific response for each parameter.

mRCC patients = test: Retrospective Kaplan-Meier analysis of overall survival in the Phase 3 ADAPT trial; type: in vivo, human
[7] = 10 ng/ml, compared to DC/CTL co-cultures without mTOR inhibitor, day 3 after second weekly stimulation

For `CO[C@H]1C[C@@H]2CC[C@@H](C)[C@@](O)(O2)C(=O)C(=O)N2CCCC[C@H]2C(=O)O[C@H]([C@H](C)C[C@@H]2CC[C@@H](OCCO)[C@H](OC)C2)CC(=O)[C@H](C)/C=C(\C)[C@@H](O)[C@@H](OC)C(=O)[C@H](C)C[C@H](C)/C=C/C=C/C=C/1C` [everolimus], the “solubility in organic solvents” value [1] is given as “enhanced”, the stability [1] is given as “greater” and the “numbers of CMV pp65 specific CTLs” value (CMV pp65 specific CTLs [2]; [7]) is given as “increase”. For the same compound, the “percentage of CMV pp65 specific CTLs” value (CMV pp65 specific CTLs [2]; [7]) was “increase”, the “increase in absolute numbers of CMV+ CTL” value (CMV pp65 specific CTLs [2]; 1 µg/ml) was “evident” and the “increase in percentage of CMV+ CTL” value (CMV pp65 specific CTLs [2]; 1 µg/ml) was “evident”. The side effects [3] was “fewer”, the “numbers of MART-1+ CTL secreting a cytokine or expressing CD107a” value (MART-1 specific CTLs [4]) was “increased” and the “concentration of TGF-β secreted by stimulated B cells” value (B cells) was “decrease”. The “priming of MART-1 specific CTLs by PME-CD40L DC” value (MART-1 specific CTLs [5]) was “able to prime”, the “numbers of CMV+ CTL secreting a cytokine or expressing CD107a” value (CMV pp65 specific CTLs [6]; 10 ng/ml, compared to untreated CTLs) was “increased” and the “increase in effector function of CMV+ CTL” value (CMV pp65 specific CTLs [6]; 1 µg/ml) was “maintained”. It also gave an OS (mRCC patients; SOC arm, everolimus during follow up) of 13.4 months, an OS (mRCC patients; SOC arm, everolimus during treatment) of 17.7 months and an OS (mRCC patients; combination arm (DC therapy), everolimus during follow up phase) of 25.7 months. For the same compound, the OS (mRCC patients; combination arm (DC therapy), everolimus during treatment phase) was 19.3 months, the “median OS” value (mRCC patients; everolimus during the follow up phase (n=42), combination n=22, everolimus after SOC therapy n=20) was 13.4 months and the “median OS” value (mRCC patients; everolimus during the treatment phase (n=49), combination n=38, everolimus alone n=11) was 17.8 months. The “median overall survival (OS)” value (mRCC patients; everolimus treated population (n=91), everolimus as 2nd line, combination n=60, everolimus alone n=31) was 13.6 months.
